The target of series [1] is β-wrapin AS10. Conditions: cited from earlier work. An excerpt:
We have previously observed β-hairpins in amyloid-β (Aβ), α-synuclein (αSyn), and islet amyloid polypeptide (IAPP), amyloidogenic proteins associated with AD, PD, and T2D, respectively (Fig. 2), [38], [39]. These β-hairpins are established upon binding to engineered binding proteins termed β-wrapins. β-Wrapins are selected from protein libraries based on ZAβ3, an affibody with high affinity for monomeric Aβ [37], [39], [40], [41], [42]. β-Hairpin structures of Aβ, αSyn and IAPP have been determined by NMR spectroscopy of their complexes with ZAβ3 and the β-wrapins AS69 and ...

The subject of another series is SEM1(86−107). Description: ThT aggregation assay and AFM of SEM1(86−107) in presence of added peptide. The series is classed as biochemical, human. The protocol:
(§1) All ThT aggregation assays were done in Greiner 96-well half-area, clear bottom, low-binding plates. The measurements themselves were done in a BMG CLARIOstar plate reader at 37 °C and 300 rpm shaking in orbital mode with one glass bead (0.75–1 mm, Roth) per well. Wells with samples were always surrounded by wells filled with liquid, either other samples or 150 μl water, to counter potential artefacts due to evaporation. […] Final concentrations of 25 µM ThT and 0.04% sodium azide (NaN3) were added. The plate was sealed with sealing tape and put into the plate reader, heated to 37 °C, and ThT fluorescence was read in 1000 cycles of 300 s each using bottom optics with excitation at 448 nm (10 nm bandwidth) and emission at 482 nm (10 nm bandwidth). […] PAP(248−286) and SEM1(86−107) were kept at constant concentrations of 500 and 300 µM, respectively. […] Samples contained 40 µM ThT and 0.04% NaN3.
(§2) For AFM imaging, 2 μl samples were taken out of the wells at the end of the ThT aggregation assays, put onto a freshly cleaved muscovite mica surface and dried during incubation for 10 min under the clean bench. Subsequently, the samples were washed with 100 μl ddH2O in three steps and dried with a stream of N2 gas. Imaging was performed in intermittent contact mode (AC mode) in a JPK NanoWizard 3 atomic force microscope using a silicon cantilever with silicon tip (OMCL-AC160TS-R3, Olympus) with a typical tip radius of 9 ± 2 nm, a force constant of 26 N/m and resonance frequency around 300 kHz. The images were processed using JPK DP Data Processing Software (version spm-5.0.84).

Series [2] can be described thus: Atomic force microscopy (AFM) of samples at the end of ThT aggregation assays. The series is classed as physicochemical. On the procedure:
as §2

For the next series, the system named is PAP(248−286). Description: ThT aggregation assay and AFM of PAP(248−286) in presence of added peptide. Type of series: biochemical, human. On the procedure:
as §1, §2

Series [3] can be described thus: Thioflavin T (ThT) aggregation assay. The series is classed as physicochemical. The protocol: All ThT aggregation assays were done in Greiner 96-well half-area, clear bottom, low-binding plates. The measurements themselves were done in a BMG CLARIOstar plate reader at 37 °C and 300 rpm shaking in orbital mode with one glass bead (0.75–1 mm, Roth) per well. Wells with samples were always surrounded by wells filled with liquid, either other samples or 150 μl water, to counter potential artefacts due to evaporation. […] Final concentrations of 25 µM ThT and 0.04% sodium azide (NaN3) were added. The plate was sealed with sealing tape and put into the plate reader, heated to 37 °C, and ThT fluorescence was read in 1000 cycles of 300 s each using bottom optics with excitation at 448 nm (10 nm bandwidth) and emission at 482 nm (10 nm bandwidth). […] Samples contained 40 µM ThT and 0.04% NaN3.
Fig. 4 Test set of eight protein segments. (A) List of the investigated peptides. Underlined stretches in the peptide sequences correspond to the predicted amyloidogenic β-hairpins. A peptide was considered ‘soluble’ when no visible precipitation occurred upon dissolution of the lyophilized peptide in 20 mM NaPi, pH 7.4, 50 mM NaCl, to a final concentration of 20 µM. […] (B) Conformations of investigated segments (red) in the context of their source proteins.

The target in series [4] is β-wrapin AS10. Description: Isothermal titration calorimetry (ITC) of peptide binding to AS10. Conditions: 30 °C, 30 µM AS10 in cell, peptide titrated from syringe, 20 mM sodium phosphate, pH 7.4, 50 mM NaCl, 1:1 binding model, read-out: Affinity to AS10 (dissociation constant KD). On the procedure: ITC was performed at 30 °C using a Microcal iTC200 calorimeter (GE Healthcare). AS10 was filled into the cell at a concentration of 30 µM in 20 mM sodium phosphate, pH 7.4, 50 mM NaCl. Peptides were titrated from the syringe in approximately 10-fold higher concentrations. Heats of post-saturation injections were averaged and subtracted from each injection to correct for heats of dilution and mixing. Dissociation constants were obtained from a nonlinear least-squares fit to a 1:1 binding model using MicroCal Origin.

Entries after “also recorded” stand apart in the source; their conditions may differ. Where no end group is shown, it is not given here.

Regarding “IAPP: islet amyloid polypeptide, amyloidogenic protein associated with T2D (KCNTATCATQRLANFLVHSSNNFGAILSSTNVGSNTY; Islet amyloid polypeptide; UniProt P10997 34-70, looked up)”, the “Affinity for β-wrapin AS10” value at β-wrapin AS10 [1] is reported as “sub-micromolar”.
Turning to KDFIATLGKLSGLHGQDLFGIWSK [PAP(185−208)], the “Effect of added peptide on ThT time trace of SEM1(86−107)” value in the series on SEM1(86−107) (300 µM SEM1(86−107), added peptide 25–100 µM, 50 mM Tris, pH 8.5, 37 °C, 40 µM ThT) was “ThT time traces featuring a lag-time and a phase of rapid growth indicative of amyloid formation”. Also, the “AFM morphology after co-incubation with SEM1(86−107)” value in the series with SEM1(86−107) (AFM at end of aggregation assay, 300 µM SEM1(86−107) with PAP(185−208)) is reported as “shift to fibrillar aggregate morphology”. The AFM aggregate morphology entry in series [2] (end of ThT aggregation assay in 20 mM NaPi, pH 7.4, 50 mM NaCl, dried on mica) is reported as “fibrillar aggregates confirming amyloid formation were detected”. Moreover, in series [2] (end of ThT assay at moderate peptide concentrations without ThT fluorescence, 50 mM Tris, pH 8.5), the “AFM aggregate morphology of individual peptide” value was “aggregates of amorphous shape”. In addition, the “Effect of added peptide on ThT time trace of PAP(248−286)” value in the series on PAP(248−286) (500 µM PAP(248−286), added peptide 25–100 µM, 50 mM Tris, pH 8.5, 37 °C, 40 µM ThT) is “ThT time traces featuring a lag-time and a phase of rapid growth indicative of amyloid formation”. The “AFM morphology after co-incubation with PAP(248−286)” value in the series on PAP(248−286) (AFM at end of aggregation assay, 500 µM PAP(248−286) with PAP(185−208)) was “shift to fibrillar aggregate morphology”. For the same substance, the “ThT fluorescence time course” value in series [3] (20–25 µM peptide, 20 mM NaPi, pH 7.4, 50 mM NaCl, 37 °C, 25 µM ThT, triplicate) is listed as “no increase in fluorescence intensity was detected”; in series [3] (peptide increased to 500–550 µM, 20 mM NaPi, pH 7.4, 50 mM NaCl, 37 °C, 25 µM ThT, triplicate), “exhibited ThT fluorescence”. The “Peptide concentration sufficient for amyloid formation” value in series [3] (ThT assay, Fig. 5D (550 µM, 20 mM NaPi, pH 7.4, 50 mM NaCl)) is more than 0.5 mM. Also, the ThT result in series [3] (peptide 20–550 µM, up to 85 h, 20 mM NaPi, pH 7.4, 50 mM NaCl, 37 °C, 300 rpm, glass bead, 25 µM ThT, triplicate) is recorded as “+”. Further, the “ThT fluorescence of peptide alone” value in series [3] (peptide alone 25–100 µM (up to 100 µM), 50 mM Tris, pH 8.5, 37 °C, 40 µM ThT) is “did not exhibit ThT fluorescence; also recorded: do not exhibit ThT fluorescene”. For the same substance, the Kd at β-wrapin AS10 [4] was determined as 39 ± 5 µM.
Consider “Aβ: amyloid-β, amyloidogenic protein associated with AD”, for which the “Affinity for β-wrapin AS10” value on β-wrapin AS10 [1] was “sub-micromolar”.
